Test results: ChEMBL document CHEMBL1139614, “Synthesis and antibacterial activity of novel (un)substituted benzotriazolyl oxazolidinone derivatives” (2005)
Values after ≈ are worked out from the molar mass of the structure shown. Active and inactive are the calls of the source. The rule behind the calls is not given here.

Legend:
Staphylococcus aureus [1] = experiment: In vitro minimum inhibitory concentration against Staphylococcus aureus (ATCC 25923 and 29213); assay type: functional
Bacillus pumilus [2] = experiment: In vitro minimum inhibitory concentration against Bacillus pumilus (ATCC 14884); assay type: functional
Staphylococcus aureus [3] = experiment: In vitro minimum inhibitory concentration against methicillin-resistant Staphylococcus aureus (ST450, ATCC 15187, ICH 1 and 37); assay type: functional
[4] = tested on: Staphylococcus epidermidis; experiment: In vitro minimum inhibitory concentration against Staphylococcus epidermidis (ATCC 12228); assay type: functional
Enterococcus faecalis [5] = experiment: In vitro minimum inhibitory concentration against Enterococcus faecalis (ATCC 29212 and 21777); assay type: functional
[6] = tested on: Staphylococcus epidermidis; experiment: In vitro minimum inhibitory concentration against methicillin-resistant Staphylococcus epidermidis (ATCC 23760); assay type: functional
Enterococcus faecium [7] = experiment: In vitro minimum inhibitory concentration against Enterococcus faecium (6A-VRE); assay type: functional
Enterococcus faecalis [8] = experiment: In vitro minimum inhibitory concentration against Enterococcus faecalis [(VRE) ATCC 346-VRE and 5B-VRE]; assay type: functional
[9] = tested on: Salmonella enterica subsp. enterica serovar Abony; experiment: In vitro minimum inhibitory concentration against Salmonella abony (NCTC 6017); assay type: functional
Escherichia coli [10] = experiment: In vitro minimum inhibitory concentration against Escherichia coli (ATCC 25922); assay type: functional
Pseudomonas aeruginosa [11] = experiment: In vitro minimum inhibitory concentration against Pseudomonas aeruginosa (ATCC 27853); assay type: functional
[12] = tested on: Staphylococcus epidermidis; experiment: In vitro minimum inhibitory concentration against methicillin-resistant Staphylococcus epidermidis (ATCC 23760); NA= Not active in preliminary screening up to 50 ug/mL; assay type: functional, organism-based
[13] = tested on: Staphylococcus epidermidis; experiment: In vitro minimum inhibitory concentration against Staphylococcus epidermidis (ATCC 12228); NA= Not active in preliminary screening up to 50 ug/mL; assay type: functional, organism-based
Staphylococcus aureus [14] = experiment: In vitro minimum inhibitory concentration against methicillin-resistant Staphylococcus aureus (ST450, ATCC 15187, ICH 1 and 37); NA= Not active in preliminary screening up to 50 ug/mL; assay type: functional, organism-based
Pseudomonas aeruginosa [15] = experiment: In vitro minimum inhibitory concentration against Pseudomonas aeruginosa (ATCC 27853); NA= Not active in preliminary screening up to 50 ug/mL; assay type: functional, organism-based
Enterococcus faecium [16] = experiment: In vitro minimum inhibitory concentration against Enterococcus faecium (6A-VRE); NA= Not active in preliminary screening up to 50 ug/mL; assay type: functional, organism-based
Enterococcus faecalis [17] = experiment: In vitro minimum inhibitory concentration against Enterococcus faecalis (ATCC 29212 and 21777); NA= Not active in preliminary screening up to 50 ug/mL; assay type: functional, organism-based
Staphylococcus aureus [18] = experiment: In vitro minimum inhibitory concentration against Staphylococcus aureus (ATCC 25923 and 29213); NA= Not active in preliminary screening up to 50 ug/mL; assay type: functional, organism-based
Enterococcus faecalis [19] = experiment: In vitro minimum inhibitory concentration against Enterococcus faecalis [(VRE) ATCC 346-VRE and 5B-VRE]; NA= Not active in preliminary screening up to 50 ug/mL; assay type: functional, organism-based
[20] = tested on: Staphylococcus saprophyticus; experiment: In vitro minimum inhibitory concentration against Staphylococcus saprophyticus (ATCC 15305); NA= Not active in preliminary screening up to 50 ug/mL; assay type: functional, organism-based
Bacillus pumilus [21] = experiment: In vitro minimum inhibitory concentration against Bacillus pumilus (ATCC 14884); NA= Not active in preliminary screening up to 50 ug/mL; assay type: functional, organism-based
[22] = tested on: Salmonella enterica subsp. enterica serovar Abony; experiment: In vitro minimum inhibitory concentration against Salmonella abony (NCTC 6017); NA= Not active in preliminary screening up to 50 ug/mL; assay type: functional, organism-based
Staphylococcus aureus [23] = experiment: In vitro minimum inhibitory concentration against methicillin-resistant Staphylococcus aureus (ST450, ATCC 15187, ICH 1 and 37); Range= 0.125-0.25 ug/mL; assay type: functional
[24] = tested on: Staphylococcus epidermidis; experiment: In vitro minimum inhibitory concentration against Staphylococcus epidermidis (ATCC 12228); Range= 0.125-0.25 ug/mL; assay type: functional
Enterococcus faecalis [25] = experiment: In vitro minimum inhibitory concentration against Enterococcus faecalis [(VRE) ATCC 346-VRE and 5B-VRE]; Range= 0.125-0.25 ug/mL; assay type: functional
[26] = tested on: Staphylococcus saprophyticus; experiment: In vitro minimum inhibitory concentration against Staphylococcus saprophyticus (ATCC 15305); assay type: functional
Escherichia coli [27] = experiment: In vitro minimum inhibitory concentration against Escherichia coli (ATCC 25922); NA= Not active in preliminary screening up to 50 ug/mL; assay type: functional, organism-based
Staphylococcus aureus [28] = experiment: In vitro minimum inhibitory concentration against Staphylococcus aureus (ATCC 25923 and 29213); Range 2-4 ug/mL; assay type: functional

O=C1O[C@@H](C/N=C(\S)OCCO)CN1c1ccc(-n2nnc3ccccc32)c(F)c1
MIC (Staphylococcus aureus [1]): > 16 µg/mL | MIC (Bacillus pumilus [2]): > 16 µg/mL | MIC (Staphylococcus aureus [3]): > 16 µg/mL | MIC [4]: > 16 µg/mL | MIC (Enterococcus faecalis [5]): > 16 µg/mL | MIC [6]: > 16 µg/mL | MIC (Enterococcus faecium [7]): > 16 µg/mL | MIC (Enterococcus faecalis [8]): > 16 µg/mL | MIC [9]: > 16 µg/mL | MIC (Escherichia coli [10]): > 16 µg/mL | MIC (Pseudomonas aeruginosa [11]): > 16 µg/mL

O=C1O[C@@H](C/N=C(\S)OCC(F)(F)C(F)F)CN1c1ccc(-n2nnc3ccccc32)c(F)c1
MIC [12]: inactive | MIC [13]: inactive | MIC (Staphylococcus aureus [14]): inactive | MIC (Pseudomonas aeruginosa [15]): inactive | MIC (Enterococcus faecium [16]): inactive | MIC (Enterococcus faecalis [17]): inactive | MIC (Staphylococcus aureus [18]): inactive | MIC (Enterococcus faecalis [19]): inactive | MIC [20]: inactive | MIC (Escherichia coli [10]): inactive | MIC (Bacillus pumilus [21]): inactive | MIC [22]: inactive

COC(=O)c1ccc2c(c1)nnn2-c1ccc(N2C[C@H](C/N=C(/N)S)OC2=O)cc1F
MIC (Staphylococcus aureus [1]): 0.25 µg/mL (≈ 0.562 µM) | MIC (Staphylococcus aureus [23]): 0.25 µg/mL (≈ 0.562 µM) | MIC [24]: 0.25 µg/mL (≈ 0.562 µM) | MIC (Enterococcus faecalis [5]): 0.125 µg/mL (≈ 0.281 µM) | MIC (Enterococcus faecalis [25]): 0.25 µg/mL (≈ 0.562 µM) | MIC [6]: 0.125 µg/mL (≈ 0.281 µM) | MIC (Enterococcus faecium [7]): 0.25 µg/mL (≈ 0.562 µM) | MIC [26]: 0.25 µg/mL (≈ 0.562 µM) | MIC (Escherichia coli [10]): > 16 µg/mL | MIC (Pseudomonas aeruginosa [11]): > 16 µg/mL

CO/C(S)=N/C[C@H]1CN(c2ccc(-n3nnc4ccccc43)c(F)c2)C(=O)O1
MIC (Staphylococcus aureus [1]): 1 µg/mL (≈ 2.49 µM) | MIC (Bacillus pumilus [2]): > 16 µg/mL | MIC (Staphylococcus aureus [3]): 1 µg/mL (≈ 2.49 µM) | MIC [4]: 0.25 µg/mL (≈ 0.623 µM) | MIC (Enterococcus faecalis [5]): 1 µg/mL (≈ 2.49 µM) | MIC [6]: 0.25 µg/mL (≈ 0.623 µM) | MIC (Enterococcus faecium [7]): 1 µg/mL (≈ 2.49 µM) | MIC (Enterococcus faecalis [8]): 1 µg/mL (≈ 2.49 µM) | MIC [9]: > 16 µg/mL | MIC (Escherichia coli [10]): > 16 µg/mL | MIC (Pseudomonas aeruginosa [11]): > 16 µg/mL

CCN(CC)CC/N=C(\S)NC[C@H]1CN(c2ccc(-n3nnc4ccccc43)c(F)c2)C(=O)O1
MIC (Staphylococcus aureus [1]): > 16 µg/mL | MIC (Bacillus pumilus [2]): > 16 µg/mL | MIC (Staphylococcus aureus [3]): > 16 µg/mL | MIC [4]: > 16 µg/mL | MIC (Enterococcus faecalis [5]): > 16 µg/mL | MIC [6]: > 16 µg/mL | MIC (Enterococcus faecium [7]): > 16 µg/mL | MIC (Enterococcus faecalis [8]): > 16 µg/mL | MIC [9]: > 16 µg/mL | MIC (Escherichia coli [10]): > 16 µg/mL | MIC (Pseudomonas aeruginosa [11]): > 16 µg/mL

O=C1O[C@@H](C/N=C(\S)OCC(F)(F)F)CN1c1ccc(-n2nnc3ccccc32)c(F)c1
MIC [12]: inactive | MIC [13]: inactive | MIC (Staphylococcus aureus [14]): inactive | MIC (Pseudomonas aeruginosa [15]): inactive | MIC (Enterococcus faecium [16]): inactive | MIC (Enterococcus faecalis [17]): inactive | MIC (Staphylococcus aureus [18]): inactive | MIC (Enterococcus faecalis [19]): inactive | MIC [20]: inactive | MIC (Bacillus pumilus [21]): inactive | MIC (Escherichia coli [27]): inactive | MIC [22]: inactive

CC(=O)NC[C@H]1CN(c2ccc(N3CCOCC3)c(F)c2)C(=O)O1 [LINEZOLID]
MIC [4]: 2 µg/mL (≈ 5.93 µM) | MIC [6]: 2 µg/mL (≈ 5.93 µM) | MIC (Enterococcus faecium [7]): 2 µg/mL (≈ 5.93 µM) | MIC [9]: > 16 µg/mL | MIC [26]: > 16 µg/mL | MIC (Escherichia coli [10]): > 16 µg/mL | MIC (Pseudomonas aeruginosa [11]): > 16 µg/mL

N=C(S)NC[C@H]1CN(c2ccc(-n3nnc4ccccc43)c(F)c2)C(=O)O1
MIC (Staphylococcus aureus [1]): 0.25 µg/mL (≈ 0.647 µM) | MIC (Bacillus pumilus [2]): 0.25 µg/mL (≈ 0.647 µM) | MIC (Staphylococcus aureus [3]): 0.25 µg/mL (≈ 0.647 µM) | MIC [4]: 0.25 µg/mL (≈ 0.647 µM) | MIC (Enterococcus faecalis [5]): 0.25 µg/mL (≈ 0.647 µM) | MIC [6]: 0.125 µg/mL (≈ 0.323 µM) | MIC (Enterococcus faecium [7]): 16 µg/mL (≈ 41.4 µM) | MIC (Enterococcus faecalis [8]): 0.25 µg/mL (≈ 0.647 µM) | MIC [9]: > 16 µg/mL | MIC (Escherichia coli [10]): > 16 µg/mL | MIC (Pseudomonas aeruginosa [11]): > 16 µg/mL

CN(C)CCO/C(S)=N/C[C@H]1CN(c2ccc(-n3nnc4ccccc43)c(F)c2)C(=O)O1
MIC (Staphylococcus aureus [1]): > 16 µg/mL | MIC (Bacillus pumilus [2]): > 16 µg/mL | MIC (Staphylococcus aureus [3]): > 16 µg/mL | MIC [4]: > 16 µg/mL | MIC (Enterococcus faecalis [5]): > 16 µg/mL | MIC [6]: > 16 µg/mL | MIC (Enterococcus faecium [7]): > 16 µg/mL | MIC (Enterococcus faecalis [8]): > 16 µg/mL | MIC [9]: > 16 µg/mL | MIC [26]: > 16 µg/mL | MIC (Escherichia coli [10]): > 16 µg/mL | MIC (Pseudomonas aeruginosa [11]): > 16 µg/mL

COC(=O)c1ccc2c(c1)nnn2-c1ccc(N2C[C@H](C/N=C(\S)OC)OC2=O)cc1F
MIC (Staphylococcus aureus [1]): 0.25 µg/mL (≈ 0.544 µM) | MIC (Staphylococcus aureus [3]): 0.25 µg/mL (≈ 0.544 µM) | MIC [4]: 0.25 µg/mL (≈ 0.544 µM) | MIC (Enterococcus faecalis [5]): 0.125 µg/mL (≈ 0.272 µM) | MIC [6]: 0.125 µg/mL (≈ 0.272 µM) | MIC (Enterococcus faecium [7]): 0.25 µg/mL (≈ 0.544 µM) | MIC (Enterococcus faecalis [8]): 0.25 µg/mL (≈ 0.544 µM) | MIC [26]: 0.25 µg/mL (≈ 0.544 µM) | MIC (Escherichia coli [10]): > 16 µg/mL | MIC (Pseudomonas aeruginosa [11]): > 16 µg/mL

O=C1O[C@@H](CN/C(S)=N/CCO)CN1c1ccc(-n2nnc3ccccc32)c(F)c1
MIC (Staphylococcus aureus [28]): 4 µg/mL (≈ 9.29 µM) | MIC (Staphylococcus aureus [3]): 2 µg/mL (≈ 4.65 µM) | MIC [4]: 2 µg/mL (≈ 4.65 µM) | MIC (Enterococcus faecalis [5]): 1 µg/mL (≈ 2.32 µM) | MIC [6]: 0.5 µg/mL (≈ 1.16 µM) | MIC (Enterococcus faecium [7]): 1 µg/mL (≈ 2.32 µM) | MIC (Enterococcus faecalis [8]): 1 µg/mL (≈ 2.32 µM) | MIC [9]: > 16 µg/mL | MIC (Escherichia coli [10]): > 16 µg/mL | MIC (Pseudomonas aeruginosa [11]): > 16 µg/mL

O=C1O[C@@H](CN/C(S)=N/CCCO)CN1c1ccc(-n2nnc3ccccc32)c(F)c1
MIC [12]: inactive | MIC [13]: inactive | MIC (Staphylococcus aureus [14]): inactive | MIC (Pseudomonas aeruginosa [15]): inactive | MIC (Enterococcus faecium [16]): inactive | MIC (Enterococcus faecalis [17]): inactive | MIC (Staphylococcus aureus [18]): inactive | MIC (Enterococcus faecalis [19]): inactive | MIC [20]: inactive | MIC (Bacillus pumilus [21]): inactive | MIC (Escherichia coli [27]): inactive | MIC [22]: inactive
